{"source": "paper PMC9395488", "about": "“First-in-human study of IM156, a novel potent biguanide oxidative phosphorylation (OXPHOS) inhibitor, in patients with advanced solid tumors” (Investigational New Drugs, 2022)", "origin": "cited, not measured here", "key": {"[1]": {"tested_on": "patients (pts) with advanced solid tumors", "conditions": "cited from earlier work"}, "A549": {"tested_on": "A549", "set-up": "method as in ImmunoMet, 2018", "conditions": "in A549; ref ImmunoMet, 2018; read-out: OXPHOS inhibition IC50; cited from earlier work"}, "OXPHOS": {"tested_on": "OXPHOS", "set-up": "method as in ImmunoMet, 2018", "conditions": "at the same concentration; ref ImmunoMet, 2018; cited from earlier work"}, "glioblastoma (GSC11)": {"tested_on": "glioblastoma (GSC11)", "set-up": "method as in ImmunoMet, 2018", "conditions": "glioblastoma animal model, control group 47 days; ref ImmunoMet, 2018; cited from earlier work"}, "Glioblastoma cells": {"tested_on": "Glioblastoma cells", "set-up": "method as in ImmunoMet, 2018", "conditions": "15 µM IM156, 500 µM temozolomide, ref ImmunoMet, 2018; cited from earlier work"}}}
{"smiles": "Cc1nc(-c2nc(-c3ccc(OC(F)(F)F)cc3)no2)nn1Cc1cccc(N2CCC(S(C)(=O)=O)CC2)c1", "note": "[IACS-010759]", "values": [{"measurement": "patients with PR, percent", "setting": "[1]", "value": 5, "unit": "%"}, {"measurement": "patients with SD", "setting": "[1]", "value": 8, "unit": "patients"}, {"measurement": "patients with SD, percent", "setting": "[1]", "value": 38, "unit": "%"}, {"measurement": "Grade ≥ 3 AEs, percent of patients", "setting": "[1]; human, in vivo", "value": 43, "unit": "%"}, {"measurement": "diarrhea of any grade, percent of patients", "setting": "[1]; human, in vivo", "value": 10, "unit": "%"}, {"measurement": "elevations of blood lactate, percent of patients", "setting": "[1]; human, in vivo", "value": 71, "unit": "%"}, {"measurement": "nausea of any grade, percent of patients", "setting": "[1]; human, in vivo", "value": 67, "unit": "%"}, {"measurement": "vomiting of any grade, percent of patients", "setting": "[1]; human, in vivo", "value": 29, "unit": "%"}, {"measurement": "patients with PR", "setting": "[1]; patient with prostate cancer", "value": "one"}]}
{"smiles": "CN(C)C(=N)N=C(N)N", "note": "[metformin, reference compound]", "values": [{"measurement": "IC50", "setting": "A549", "value": "~500", "unit": "µM"}]}
{"smiles": "[H]/N=C(/N)N/C(=N/[H])NCCc1ccccc1", "note": "[phenformin, reference compound]", "values": [{"measurement": "time until OXPHOS inhibition starts to show", "setting": "OXPHOS", "value": "≥ 6", "unit": "h"}]}
{"smiles": "Cn1nnc2c(C(N)=O)ncn2c1=O", "note": "[temozolomide, reference compound]", "values": [{"measurement": "median survival time", "setting": "glioblastoma (GSC11)", "value": 58, "unit": "days"}, {"measurement": "neurosphere size", "setting": "Glioblastoma cells", "value": "decreased"}]}
